Results reported in patent US20250171459A1, “2-METHYL-4',5'-DIHYDROSPIRO[PIPERIDINE-4,7'-THIENO[2,3-C]PYRAN] DERIVATIVES AS INHIBITORS OF APOL1 AND METHODS OF USING SAME” (Vertex Pharmaceuticals Incorporated, priority 2022, published 2025).

Molecular target: T1, APOL1 (Homo sapiens, UniProt O14791)
T1 sequence (O14791 1-398 S342G/I384M): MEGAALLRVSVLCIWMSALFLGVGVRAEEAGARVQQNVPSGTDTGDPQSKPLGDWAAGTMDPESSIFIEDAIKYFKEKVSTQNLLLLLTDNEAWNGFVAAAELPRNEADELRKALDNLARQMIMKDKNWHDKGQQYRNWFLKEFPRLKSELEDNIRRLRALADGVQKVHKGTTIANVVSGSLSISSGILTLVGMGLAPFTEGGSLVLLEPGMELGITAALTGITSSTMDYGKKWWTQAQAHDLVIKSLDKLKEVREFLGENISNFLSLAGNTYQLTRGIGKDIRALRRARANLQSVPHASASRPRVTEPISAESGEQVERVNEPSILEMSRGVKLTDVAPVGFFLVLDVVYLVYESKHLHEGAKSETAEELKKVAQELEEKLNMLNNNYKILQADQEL
Assay: MultiTox-Fluor Multiplex Cytotoxicity Assay in tet-inducible APOL1 T-REx-HEK293 cells (cell rescue, ratio of dead to live cells)
Format: cell-based
Conditions: tet-inducible transgenic APOL1 T-REx-HEK293 cell lines, 50 ng/mL tet, 24 hours; read-out: IP50 (i.e., IC50 for cell proliferation)
Procedure, shortened: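 T-REx-HEK293 cells with tet-inducible APOL1 were treated with compound (10 μM top, 10-point 3-fold dilution, duplicate) plus 50 ng/mL tetracycline for 24 h at 37° C, in DMEM with 2% tet-free FBS. MultiTox-Fluor protease signals gave a dead/live ratio, normalized to no tet (100% viability) and tet alone (0%).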

Compound | IC50 [nM]
CCc1cc2c(s1)CCO[C@@]21CCN(Cc2cn(CC(C)(CO)CO)nn2)[C@@H](C)C1 [Compound 134] | < 100
CCc1cc2c(s1)CCOC21CCN(Cc2cn(C[C@H]3CC[C@@H](CO)O3)nn2)CC1 [Compound 1110] | 500 to 1000
CCc1cc2c(s1)CCO[C@@]21CCN(C[C@H]2C[C@@H](NC(=O)C3(c4ccc(F)cn4)CC3)C2)[C@@H](C)C1 [Compound 327] | 100 to 500
CCc1cc2c(s1)CCO[C@@]21CCN(Cc2cn(CC3(CO)CCOCC3)nn2)[C@@H](C)C1 [Compound 79] | 100 to 500
CCc1cc2c(s1)CCO[C@@]21CCN(Cc2cn(C[C@H]3C[C@H](O)C3)nn2)[C@@H](C)C1 [Compound 142] | 100 to 500
CCc1cc2c(s1)CCO[C@@]21CCN(CC)[C@@H](C)C1 [Compound 289] | 100 to 500
CCc1cc2c(s1)CCOC21CCN(Cc2ccc(C(=O)NCC3CCC(O)C3)nc2)CC1 (stereo not drawn) [Compound 1060] | 100 to 500
CCc1cc2c(s1)CCO[C@@]21CCN(C[C@H]2C[C@@H](NC(=O)C(O)CO)C2)[C@@H](C)C1 (stereo partly drawn) [Compound 365] | 100 to 500
CCc1cc2c(s1)CCO[C@@]21CCN(C2COCC2O)[C@@H](C)C1 (stereo partly drawn) [Compound 232, 4-[(2′S,4R)-2-ethyl-2′-methyl-spiro[6,7-dihydrothieno[3,2-c]pyran-4,4′-piperidine]-1′-yl]tetrahydrofuran-3-ol] | < 100
CCCOC(=O)N[C@H]1C[C@@H](CN2CC[C@]3(C[C@@H]2C)OCCc2sc(CC)cc23)C1 [Compound 371] | < 100
CCc1cc2c(s1)CCO[C@@]21CCN(Cc2cnc(NC(CO)CO)nc2)[C@@H](C)C1 [Compound 222] | < 100
C[C@H]1C[C@@]2(CCN1Cc1cn(CCCS(C)(=O)=O)nn1)OC[C@](O)(C(F)F)c1cc(Cl)sc12 [Compound 839] | < 100
C[C@H]1C[C@@]2(CCN1Cc1cnn(CC(O)CC(C)(C)O)c1)OC[C@@H](O)c1cc(C(F)(F)F)sc12 (stereo partly drawn) [Compound 977] | < 100
CCc1cc2c(s1)CCO[C@@]21CCN(Cc2cn(C3CC4(C3)CS(=O)(=O)C4)nn2)[C@@H](C)C1 [Compound 25] | < 100
CCc1cc2c(s1)CCOC21CCN(Cc2ccc(NS(=O)(=O)C3CC3)nc2)CC1 [Compound 1069] | 100 to 500
CCc1cc2c(s1)CCO[C@@]21CCN(C[C@H]2C[C@@H](NC(=O)CCS(C)(=O)=O)C2)[C@@H](C)C1 [Compound 356] | < 100
C[C@H]1C[C@@]2(CCN1CC1CC1)OCCc1cc(CC(F)F)sc12 [Compound 568] | < 100
CCc1cc2c(s1)CCOC21CCN(Cc2cn(CC(C)CO)nn2)C(C)C1 (stereo not drawn) [Compound 82] | 100 to 500
CCc1cc2c(s1)CCO[C@@]21CCN(Cc2cn(CC(C)(C)C3CCOCC3)nn2)[C@@H](C)C1 [Compound 100] | 100 to 500

Compound | IC50 [nM]
CCc1cc2c(s1)CCOC21CCN(Cc2cn(Cc3ccc[nH]c3=O)nn2)CC1 [Compound 1125] | 500 to 1000
CCc1cc2c(s1)CCO[C@@]21CCN(CC2CN(C(=O)Cn3cncn3)C2)[C@@H](C)C1 [Compound 483] | 100 to 500
C[C@H]1C[C@@]2(CCN1C[C@H](O)C(=O)N(C)C)OCCc1cc(Cl)sc12 [Compound 711, (2S)-3-[(2′S, 7R)-2-chloro-2′-methyl-spiro[4,5-dihydrothieno[2,3-c]pyran-7,4′-piperidine]-1′-yl]-2-hydroxy-N,N-dimethyl-propanamide] | 100 to 500
CCc1cc2c(s1)CCO[C@@]21CCN(Cc2cn(CC3CN(C(C)=O)CCO3)nn2)[C@@H](C)C1 (stereo partly drawn) [Compound 171] | 100 to 500
C[C@H]1C[C@@]2(CCN1CC1CCN(S(C)(=O)=O)CC1)OCCc1cc(Cl)sc12 [Compound 670] | 100 to 500
C[C@H]1C[C@@]2(CCN1Cc1cn(CCS(C)(=O)=O)nn1)OCC(F)c1cc(Cl)sc12 (stereo partly drawn) [Compound 863, (2S,4R)-2′-chloro-4′-fluoro-2-methyl-1-((1-(2-(methylsulfonyl)ethyl)-1H-1,2,3-triazol-4-yl)methyl)-4′,5′-dihydrospiro[piperidine-4,7′-thieno[2,3-c]pyran]] | 100 to 500
CCc1cc2c(s1)CCOC21CCN(Cc2cc3nc(OC)ccc3[nH]2)CC1 [Compound 1126, 2′-ethyl-1-((5-methoxy-1H-pyrrolo[3,2-b]pyridin-2-yl)methyl)-6′,7′-dihydrospiro[piperidine-4,4′-thieno[3,2-c]pyran]] | < 100
C#CC(C)N1CC[C@]2(C[C@@H]1C)OCCc1cc(Cl)sc12 (stereo partly drawn) [Compound 694, (2′S, 7R)-2-chloro-2′-methyl-1′-(1-methylprop-2-ynyl)spiro[4,5-dihydrothieno[2,3-c]pyran-7,4′-piperidine]] | 500 to 1000
CCc1cc2c(s1)CCO[C@@]21CCN(Cc2cn(CC3(S(C)(=O)=O)CCCC3)nn2)[C@@H](C)C1 [Compound 157] | < 100
CCc1cc2c(s1)CCO[C@@]21CCN(CC2CN(C(=O)c3n[nH]c(=O)[nH]3)C2)[C@@H](C)C1 [Compound 486] | 100 to 500
CCc1cc2c(s1)CCO[C@@]21CCN(Cc2cn(CC(=O)NCCO)nn2)[C@@H](C)C1 [Compound 81] | 100 to 500
CCc1cc2c(s1)CCOC21CCN(Cc2cnc(N3CCCCC3)s2)CC1 [Compound 1137] | 100 to 500
C[C@H]1C[C@@]2(CCN1CCN1CCCC1=O)OCCc1cc(CC(F)F)sc12 [Compound 623] | 500 to 1000
CCc1cc2c(s1)CCO[C@@]21CCN(C[C@H]2C[C@@H](NC(=O)c3cnc(C)s3)C2)[C@@H](C)C1 [Compound 320] | < 100
C[C@H]1C[C@@]2(CCN1Cc1ccc3c(c1)n(C)c(=O)n3C)OCCc1cc(CC(F)F)sc12 [Compound 564] | < 100
CCc1cc2c(s1)CCO[C@@]21CCN(Cc2cn(Cc3nnc4n3CCCC4)nn2)[C@@H](C)C1 [Compound 52] | < 100
CCc1cc2c(s1)CCO[C@@]21CCN(CC(O)c2ccc(F)cc2)[C@@H](C)C1 (stereo partly drawn) [Compound 249] | < 100
C[C@H]1C[C@@]2(CCN1Cc1ccc(S(C)(=O)=O)nc1)OCCc1c2sc(Cl)c1CO [Compound 734] | 100 to 500
CCc1cc2c(s1)CCO[C@@]21CCN(C[C@H]2C[C@@H](NS(=O)(=O)c3ccc(C#N)cc3)C2)[C@@H](C)C1 [Compound 391] | < 100

Compound | IC50 [nM]
C[C@H]1C[C@@]2(CCN1CC1CCN(S(C)(=O)=O)CC1)OC[C@H](O)c1cc(Cl)sc12 [Compound 796] | 100 to 500
CCc1cc2c(s1)CCO[C@@]21CCN(C[C@H]2C[C@@H](NC(=O)C3CCOC(C)(C)C3)C2)[C@@H](C)C1 (stereo partly drawn) [Compound 315] | < 100
CCc1cc2c(s1)CCO[C@@]21CCN(C[C@H]2C[C@@H](NS(=O)(=O)c3ccc(OC)cc3)C2)[C@@H](C)C1 [Compound 402] | < 100
C[C@H]1C[C@@]2(CCN1CCCn1cccn1)OCCc1c2sc(Cl)c1CO [Compound 721] | 500 to 1000
C[C@H]1CC2(CCN1Cc1cnn(C)c1)OC(CO)Cc1sc(Cl)cc12 (stereo partly drawn) [Compound 530] | < 100
CCc1cc2c(s1)CCO[C@@]21CCN(C[C@H]2C[C@@H](NC(=O)C3(O)CCC3)C2)[C@@H](C)C1 [Compound 330] | < 100
C[C@H]1C[C@@]2(CCN1Cc1cnn(CCS(C)(=O)=O)c1)OCCc1cc(CO)sc12 [Compound 1016, [(2′S,7R)-2′-methyl-1′-[[1-(2-methylsulfonylethyl)pyrazol-4-yl]methyl]spiro[4,5-dihydrothieno[2,3-c]pyran-7,4′-piperidine]-2-yl]methanol] | 100 to 500
C[C@H]1C[C@@]2(CCN1Cc1ccccn1)OC[C@H](O)c1cc(Cl)sc12 [Compound 811] | 500 to 1000
C[C@H]1C[C@@]2(CCN1Cc1ccc(OCCO)cc1)OC[C@H](O)c1cc(Cl)sc12 [Compound 775] | < 100
C[C@H]1C[C@@]2(CCN1Cc1ccncc1)OCCc1cc(Cl)sc12 [Compound 645] | 100 to 500
CCc1cc2c(s1)CCOC21CCN(Cc2cn(CC(O)C3CCCO3)nn2)C(C)C1 (stereo not drawn) [Compound 117] | < 100
CCc1cc2c(s1)CCO[C@@]21CCN(Cc2cn(CC(C)(C)CCO)nn2)[C@@H](C)C1 [Compound 80] | 100 to 500
C[C@H]1C[C@@]2(CCN1Cc1cnn(CC(O)C3CCCOC3)c1)OCCc1c2sc(C(F)(F)F)c1CO (stereo partly drawn) [Compound 946] | < 100
C[C@H]1C[C@@]2(CCN1Cc1ccc(C(=O)N(C)C)cc1)OCCc1c2sc(Cl)c1CO [Compound 743] | 100 to 500
C[C@H]1C[C@@]2(CCN1CC1(O)CCS(=O)(=O)CC1)OCCc1cc(CC(F)F)sc12 [Compound 606] | 100 to 500
CCc1cc2c(s1)CCOC21CCN(Cc2cnn(C)c2)C(CC)C1 (stereo not drawn) [Compound 1041, 2,2′-diethyl-1-((1-methyl-1H-pyrazol-4-yl)methyl)-6′,7′-dihydrospiro[piperidine-4,4′-thieno [3,2-c]pyran]] | < 100
CCc1cc2c(s1)CCO[C@@]21CCN(CC2CN(C(=O)[C@H](C)NC(C)=O)C2)[C@@H](C)C1 [Compound 481] | 100 to 500
CCc1cc2c(s1)CCO[C@@]21CCN(Cc2cnc(NC(C)(CC)CO)nc2)[C@@H](C)C1 (stereo partly drawn) [Compound 224] | < 100
CCc1cc2c(s1)CCO[C@@]21CCN(CC2CN(C(=O)CCCS(C)(=O)=O)C2)[C@@H](C)C1 [Compound 435] | < 100
